# In paper PMC6982876, “Synthesis of Novel Benzodifuranyl; 1,3,5-Triazines; 1,3,5-Oxadiazepines; and Thiazolopyrimidines Derived from Visnaginone and Khellinone as Anti-Inflammatory and Analgesic Agents” (Molecules, 2020):
# Marks after values point to notes of the source that are not given here.
# Key:
# [1] = tested on: acetic acid-induced writhing in mice; experiment: Acetic acid-induced writhing test (analgesic activity); type: in vivo; details: 10 mg/kg p.o., n = 5; for Writhing Number in 20 min (Mean ± SEM): acetic acid 1 h after dosing; for Analgesic Activity (% protection): writhing test
# Experimental: The analgesic activity of the compounds was performed using the writhing test as described by Gawade et al.. Mice weight ranged from 25 to 30 g. Then, mice were divided into 18 different groups, each containing five animals. The animals fasted for 8 h before the experiment. Administration of the compounds (10 mg/kg, p.o.) was performed orally. Equal doses of diclofenac as the reference drug and saline as a negative control were also administrated orally. Writhing was induced one hour after compound administration by using 0.1 mL of 1% glacial acetic acid at a volume of 0.1 mL/10 g body weight. The number of writhing responses (stretching of the abdomen, extension of hind limbs, twisting of the trunk, and elongation of the body) observed was counted for 20 min. The protection percentile against acetic acid-induced writhing was calculated according to the following formula: (1) Analgesic activity (%) =n−n′/n×100* where n is the mean number of writhes of the control group, and n’ is the mean number of writhes of the tested compound group.
# ovine COX-1 = biological target: T1, ovine COX-1 (Ovis aries, UniProt P05979); experiment: In vitro COX inhibitor screening assay (EIA kit, Cayman), COX-1; type: biochemical; details: mean of two determinations, enzyme kit, read-out: COX1 IC50
# T1 construct: purchased Cayman Chemical, Ann Arbor, MI, USA 560131
# T1 sequence (P05979 25-600): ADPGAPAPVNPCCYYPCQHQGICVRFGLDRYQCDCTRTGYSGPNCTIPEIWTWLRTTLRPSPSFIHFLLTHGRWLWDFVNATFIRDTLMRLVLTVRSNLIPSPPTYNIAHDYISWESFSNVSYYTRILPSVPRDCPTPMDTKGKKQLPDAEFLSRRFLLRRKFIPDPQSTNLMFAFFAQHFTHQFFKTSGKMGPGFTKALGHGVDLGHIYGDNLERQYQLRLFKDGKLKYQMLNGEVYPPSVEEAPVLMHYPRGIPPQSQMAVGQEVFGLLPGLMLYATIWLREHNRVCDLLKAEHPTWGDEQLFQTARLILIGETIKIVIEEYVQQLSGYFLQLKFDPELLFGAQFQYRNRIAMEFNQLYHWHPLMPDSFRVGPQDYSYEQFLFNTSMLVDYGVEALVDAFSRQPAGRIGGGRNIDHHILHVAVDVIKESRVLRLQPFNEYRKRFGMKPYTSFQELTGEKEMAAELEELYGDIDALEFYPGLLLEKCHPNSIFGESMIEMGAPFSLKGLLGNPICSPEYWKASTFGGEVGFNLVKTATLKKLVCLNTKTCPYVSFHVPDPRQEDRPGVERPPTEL
# Experimental: (§1) Furthermore, the selectivity index for COX-2 (COX-1 IC50 / COX-2 IC50) was calculated for the compounds.
# [2] = tested on: carrageenan-induced paw edema in rats; experiment: Carrageenan-induced paw edema (anti-inflammatory activity); type: in vivo; details: 10 mg/kg oral; for % Change in Paw Height (Mean ± SEM): n = 5
# Experimental: Albino rats (150–180 g) were used. The rats were divided into 11 experimental groups of five rats each. One hour after oral administration of the compounds (10 mg/kg), 0.1 mL of 1% carrageenan solution was injected in the left hind paw of each animal. Rat paw volumes were measured with a digital caliber plethysmometer (UGO Basile, Varese, Italy) used to measure inflammation height at 0, 1, 2, and 3 h after carrageenan injection. The percentage increase in inflammation in the left hind paw, in comparison to the uninjected right hind paw, was determined, calculated, and expressed as the amount of inflammation. […] The anti-inflammatory activity of the selected analgesic compounds after 3 h was expressed as percentage inhibition of edema, which was calculated according to the following equation: (2) Inhibition of edema (%) =Vcont−Vtest/Vcont×100* where V cont is the edema volume in the control group, and V test is the edema volume in the group of the screened compound.
# [3] = tested on: interleukin-1 beta (IL-1 β); experiment: ELISA of serum interleukin-1 beta after paw edema test; type: in vivo, rats; details: rat serum at the end of the paw edema test, mean ± SEM, n = 5
# Experimental: IL1 is one of the important inflammatory mediators and is used to confirm the anti-inflammatory activities of new anti-inflammatory compounds. At the end of the paw edema test, blood samples were collected from the orbital axis of the eye under light ether anesthesia. Sera were separated after centrifugation of blood at 5000 rpm for 15 min; the sera were stored at –80 °C until the ELISA assay was performed according to the manufacturer instructions.
# human recombinant COX-2 = biological target: T2, human recombinant COX-2 (Homo sapiens, UniProt P35354); experiment: In vitro COX inhibitor screening assay (EIA kit, Cayman), COX-2; type: biochemical; details: for COX2 (SI) selectivity index: COX-1 IC50 / COX-2 IC50; for IC50: COX-2, mean of two determinations, enzyme kit, read-out: COX2 IC50
# T2 construct: purchased Cayman Chemical, Ann Arbor, MI, USA 560131
# T2 sequence (P35354 18-604): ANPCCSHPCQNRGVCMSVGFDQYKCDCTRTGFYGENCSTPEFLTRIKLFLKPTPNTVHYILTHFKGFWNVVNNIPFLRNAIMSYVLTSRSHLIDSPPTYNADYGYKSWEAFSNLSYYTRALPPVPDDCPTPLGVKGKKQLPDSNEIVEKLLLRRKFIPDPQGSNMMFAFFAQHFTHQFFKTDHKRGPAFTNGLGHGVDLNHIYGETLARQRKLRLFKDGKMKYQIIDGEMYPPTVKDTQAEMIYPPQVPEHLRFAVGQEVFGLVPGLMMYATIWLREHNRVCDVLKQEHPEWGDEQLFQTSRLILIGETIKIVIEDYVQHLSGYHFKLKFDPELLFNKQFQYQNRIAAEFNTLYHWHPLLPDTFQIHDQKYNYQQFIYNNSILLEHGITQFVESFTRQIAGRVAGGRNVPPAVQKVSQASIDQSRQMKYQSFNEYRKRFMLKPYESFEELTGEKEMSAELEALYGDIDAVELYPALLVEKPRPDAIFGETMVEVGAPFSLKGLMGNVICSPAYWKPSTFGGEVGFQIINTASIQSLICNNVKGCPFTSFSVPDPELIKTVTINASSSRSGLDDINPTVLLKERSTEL
# Experimental: as §1
Structure (SMILES),Writhing Number in 20 min (Mean ± SEM) [1],Analgesic Activity (% protection) [1],IC50 (ovine COX-1) [µM],% Change in Paw Height (Mean ± SEM) ([2]; 1 hr after carrageenan),% Change in Paw Height (Mean ± SEM) ([2]; 2 hr after carrageenan),Anti-Inflammatory Activity (% Inhibition of Edema) ([2]; 3 hr after carrageenan) [%],% Change in Paw Height (Mean ± SEM) ([2]; 3 hr after carrageenan),IL-1 β Concentration [3],melting point [°C],COX2 (SI) selectivity index (human recombinant COX-2),IC50 (human recombinant COX-2) [µM]
"COc1c2occc2c(OC)c2c(C)c(C3=NC4=CC(=O)N5C(=O)C(=Cc6ccccc6)SC5N4C(=O)C(=Cc4ccccc4)O3)oc12 (stereo not drawn) [Compound 13d, 2,10-di(benzylidene)-8-(4,8-dimethoxy-3-methylbenzo[1,2-b:5,4-b`]difuran-2-yl)-5H, 12aH -thiazolo[2’,3’:2,3]pyrimido[6,1-d][1,3,5]oxadiazepine-3,5,11(2H,10H)-trione]",32 ± 1.4 ^a,43 ± 1.90 ^a %,5.71,0.26 ± 0.01 ^a %,0.20 ± 0.02 ^a %,60,0.23 ± 0.02 ^a %,38 ± 0.62 ^b Pg /mL,> 350,91,0.063
"COc1ccc(C=C2OC(c3oc4c(OC)c5occc5c(OC)c4c3C)=NC3=CC(=O)N4C(=O)C(=Cc5ccc(OC)cc5)SC4N3C2=O)cc1 (stereo not drawn) [Compound 13f, 8-(4,8-dimethoxy-3-methylbenzo[1,2-b:5,4-b`]difuran-2-yl)-2,10-bis(4-methoxybenzylidene)-5H,12aH-thiazolo[2’,3’:2,3]pyrimido[6,1-d][1,3,5]oxadiazepine-3,5,11(2H,10H)-trione]",30 ± 1.8 ^a,45 ± 0.95 ^a %,5.45,0.24 ± 0.02 ^a %,0.18 ± 0.02 ^a %,62,0.21 ± 0.01 ^a %,36 ± 0.25 ^b Pg /mL,> 350,94,0.058
"COc1c2occc2c(OC)c2c(C)c(C(=Nc3cc(N4CCOCC4)nc(N4CCOCC4)n3)N3CCOCC3)oc12 [Compound 10d, 1-(4,8-dimethoxy-3-methylbenzo [1,2-b: 5,4-b`]difuran-2-yl)-N-(2,6-dimorpholino-pyrimidin-4-yl)-1-morpholinomethanimine]",26 ± 1.2 ^a,49 ± 1.1 ^a %,4.45,0.20 ± 0.01 ^a %,0.15 ± 0.02 ^a %,66,0.17 ± 0.02 ^a %,32 ± 0.45 ^b Pg /mL,> 350,97,0.046
"COc1c2ccoc2cc2oc(C3=NC4=CC(=O)N5C(=O)CSC5N4C=N3)c(C)c12 (stereo not drawn) [Compound 11a, 8-(4-methoxy-3-methylbenzo[1,2-b:5,4-b`]difuran-2-yl)-2-hydro-5H,11aH-thiazolo[2’,3’: 2,3]pyrimido[1,6-a][1,3,5]triazine-3,5-dione]",39 ± 2.1 ^a,36 ± 0.75 ^a %,6.85,0.30 ± 0.02 ^a %,0.24 ± 0.01 ^a %,55,0.28 ± 0.01 ^a %,43 ± 1.15 ^b Pg /mL,> 350,81,0.085
"COc1c2occc2c(OC)c2c(C)c(C(=Nc3cc(N4CCNCC4)nc(N4CCNCC4)n3)N3CCNCC3)oc12 [Compound 10c, N-(2,6-di (piperazin-1-yl)pyrimidin-4-yl)-1-(4,8-dimethoxy-3-methylbenzo [1,2-b: 5,4-b`]difuran-2-yl)-1-(piperazin-1-yl) methanimine]",24 ± 1.5 ^a,51 ± 1.4 ^a %,4.15,0.18 ± 0.01 ^a %,0.13 ± 0.02 ^a %,68,0.15 ± 0.02 ^a %,30 ± 0.70 ^b Pg /mL,–,–,–
"COc1c2occc2c(OC)c2c(C)c(C3=NC4=CC(=O)N5C(=O)CSC5N4C=N3)oc12 (stereo not drawn) [Compound 11b, 8-(4,8-dimethoxy-3-methylbenzo[1,2-b:5,4-b`]difuran-2-yl)-2-hydro-5H,11aH-thiazolo [2’, 3’:2,3]pyrimido[1,6-a][1,3,5]triazine-3,5-dione]",37 ± 2.3 ^a,38 ± 0.80 ^a %,6.6,0.29 ± 0.01 ^a %,0.23 ± 0.01 ^a %,56,0.27 ± 0.02 ^a %,42 ± 0.98 ^b Pg /mL,> 350,83,0.08
